ChEMBL document CHEMBL1201862, “PubChem BioAssay data set” (2004)
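1) Cells in 96-well plates. 2) Compound, 48 h, 5 concentrations. 3) Linear interpolation between surrounding doses. 4) Unreached endpoint = highest concentration. GI50 = concentration required for 50% inhibition of growth.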 The source made the active and inactive calls. No stated cut-off is given here; in the data, active = GI50 up to about 1.1 µM and inactive = higher.

Experiments:
Experiment in all cases: DTP human tumour cell line panel, 48 h
786-0 = test system: 786-0
CCRF-CEM = test system: CCRF-CEM
DU-145 = test system: DU-145
HCC 2998 = test system: HCC 2998
KM12 = test system: KM12
M14 = test system: M14
NCI-H226 = test system: NCI-H226
OVCAR-4 = test system: OVCAR-4
OVCAR-5 = test system: OVCAR-5
OVCAR-8 = test system: OVCAR-8
SF-295 = test system: SF-295
SF-539 = test system: SF-539
SK-MEL-28 = test system: SK-MEL-28
SK-MEL-2 = test system: SK-MEL-2
SK-MEL-5 = test system: SK-MEL-5
SNB-19 = test system: SNB-19
SW-620 = test system: SW-620
U-251 = test system: U-251
UACC-257 = test system: UACC-257
CAKI-1 = test system: CAKI-1

Measured: GI50

COC(=O)/C(=C\Nc1cccc(C)n1)S(=O)(=O)c1ccc(C)cc1
inactive: 786-0 > 100 µM | CCRF-CEM 37.8 µM | DU-145 > 100 µM | HCC 2998 > 100 µM | KM12 35.5 µM | M14 45.7 µM | NCI-H226 36.5 µM | OVCAR-4 93.5 µM | OVCAR-5 > 100 µM | OVCAR-8 77.6 µM | SF-295 > 100 µM | SF-539 52.4 µM | SK-MEL-28 67 µM | SK-MEL-2 33.4 µM | SK-MEL-5 36.8 µM | SNB-19 39.2 µM | SW-620 27.1 µM | U-251 73.3 µM | UACC-257 69.2 µM

Cn1c(S)nc(C(N)=O)c1N
inactive: 786-0 > 100 µM | CCRF-CEM > 100 µM | DU-145 > 100 µM | HCC 2998 > 100 µM | KM12 > 100 µM | M14 > 100 µM | NCI-H226 > 100 µM | OVCAR-4 > 100 µM | OVCAR-5 > 100 µM | OVCAR-8 > 100 µM | SF-295 > 100 µM | SF-539 > 100 µM | SK-MEL-28 > 100 µM | SK-MEL-2 > 100 µM | SK-MEL-5 > 100 µM | SNB-19 > 100 µM | SW-620 > 100 µM | U-251 > 100 µM

CC(=O)NC1C(OCc2ccccc2)OC(CO)C(O)C1OCC(=O)N[C@@H](C)C(=O)N[C@H](CCC(=O)NCCNc1ccc([N+](=O)[O-])c2[nH]c3ccccc3c(=O)c12)C(N)=O (stereo partly specified)
inactive: 786-0 18.7 µM | CAKI-1 29.9 µM | CCRF-CEM 67.6 µM | DU-145 33.4 µM | HCC 2998 10.9 µM | KM12 20.1 µM | M14 60.3 µM | NCI-H226 12.8 µM | OVCAR-4 23.3 µM | OVCAR-5 37.2 µM | OVCAR-8 18.2 µM | SF-295 37.4 µM | SF-539 2.21 µM | SK-MEL-28 33.2 µM | SK-MEL-5 24.8 µM | SNB-19 23 µM | SW-620 7.74 µM | U-251 29.5 µM | UACC-257 22.1 µM

Cc1nc(N)c(N2CCN(Cc3ccccc3)CC2)c(O)n1
inactive: 786-0 > 100 µM | CCRF-CEM > 100 µM | DU-145 > 100 µM | HCC 2998 > 100 µM | KM12 > 100 µM | M14 > 100 µM | NCI-H226 > 100 µM | OVCAR-5 > 100 µM | OVCAR-8 > 100 µM | SF-295 > 100 µM | SF-539 > 100 µM | SK-MEL-28 > 100 µM | SK-MEL-2 > 100 µM | SNB-19 > 100 µM | SW-620 > 100 µM | U-251 > 100 µM | UACC-257 > 100 µM

Cn1c(-c2cccs2)cc(-c2ccsc2)c1-c1cccs1
inactive: 786-0 > 100 µM | CAKI-1 > 100 µM | CCRF-CEM > 100 µM | DU-145 87.1 µM | HCC 2998 > 100 µM | KM12 > 100 µM | M14 92.3 µM | NCI-H226 > 100 µM | OVCAR-4 > 100 µM | OVCAR-5 > 100 µM | OVCAR-8 > 100 µM | SF-295 > 100 µM | SF-539 > 100 µM | SK-MEL-28 99.1 µM | SK-MEL-5 > 10 µM | SNB-19 > 100 µM | SW-620 > 100 µM | U-251 > 100 µM | UACC-257 52.2 µM

C[N+]1(C)CC=C(N2CCOCC2)CC1
inactive: 786-0 > 10 µM | CAKI-1 > 10 µM | CCRF-CEM > 10 µM | DU-145 > 10 µM | HCC 2998 > 10 µM | KM12 > 10 µM | M14 > 10 µM | NCI-H226 > 10 µM | OVCAR-4 > 10 µM | OVCAR-8 > 10 µM | SF-295 > 10 µM | SF-539 > 10 µM | SK-MEL-28 > 10 µM | SK-MEL-2 > 10 µM | SK-MEL-5 > 10 µM | SNB-19 > 10 µM | SW-620 > 10 µM | U-251 > 10 µM | UACC-257 > 10 µM

COc1c(C(=O)NCCN(CCNC(=O)c2cccc(-c3cccc(C(=O)N(C)C)c3OC)c2OC)CCNC(=O)c2cccc(-c3cccc(C(=O)N(C)C)c3OC)c2OC)cccc1-c1cccc(C(=O)N(C)C)c1OC
inactive: 786-0 57.3 µM | CAKI-1 > 100 µM | CCRF-CEM 31.3 µM | DU-145 32.7 µM | HCC 2998 17.2 µM | KM12 17.3 µM | M14 > 100 µM | NCI-H226 17.8 µM | OVCAR-4 28.3 µM | OVCAR-5 34.2 µM | OVCAR-8 > 100 µM | SF-295 > 100 µM | SF-539 18.1 µM | SK-MEL-28 19.5 µM | SK-MEL-5 30.5 µM | SNB-19 56.5 µM | SW-620 38.1 µM | U-251 34 µM | UACC-257 29 µM

CC1(C)OCC([C@H]2O[C@@H](CC(=S)NCCCCCCCCCCCCNC(=S)C[C@H]3O[C@@H](C4COC(C)(C)O4)[C@H]4OC(C)(C)O[C@H]43)[C@H]3OC(C)(C)O[C@H]32)O1 (stereo partly specified)
inactive: 786-0 83.8 µM | CAKI-1 17.5 µM | DU-145 > 100 µM | HCC 2998 75.7 µM | KM12 48.6 µM | M14 52.5 µM | NCI-H226 > 100 µM | OVCAR-4 43.3 µM | OVCAR-5 > 100 µM | OVCAR-8 53.5 µM | SF-295 31.6 µM | SF-539 57.9 µM | SK-MEL-28 > 100 µM | SK-MEL-2 58.5 µM | SK-MEL-5 23.7 µM | SW-620 > 100 µM | U-251 35 µM | UACC-257 42.5 µM

CN(C)/C=C/C=C(/C=N/S(=O)(=O)C(F)(F)F)C1C=CN(S(=O)(=O)C(F)(F)F)C=C1
inactive: 786-0 45.8 µM | CAKI-1 25.6 µM | CCRF-CEM 27.1 µM | DU-145 37.2 µM | HCC 2998 28.1 µM | KM12 25 µM | M14 36.1 µM | NCI-H226 26 µM | OVCAR-4 15.8 µM | OVCAR-5 30.2 µM | OVCAR-8 37.7 µM | SF-295 38.2 µM | SK-MEL-28 91.8 µM | SK-MEL-2 24.5 µM | SK-MEL-5 23.5 µM | SW-620 38.1 µM | U-251 37.6 µM | UACC-257 23.1 µM

OCC1CCC(n2cnc3c(O)ncnc32)O1 (stereo unspecified)
inactive: 786-0 > 1000 µM | CAKI-1 > 100 µM | CCRF-CEM > 100 µM | DU-145 > 1000 µM | HCC 2998 > 100 µM | KM12 > 100 µM | M14 > 1000 µM | NCI-H226 > 100 µM | OVCAR-4 > 100 µM | OVCAR-5 > 100 µM | OVCAR-8 > 100 µM | SK-MEL-28 > 100 µM | SK-MEL-2 > 100 µM | SK-MEL-5 > 100 µM | SW-620 > 100 µM | UACC-257 > 87.9 µM

CC(C)=Cc1cc2c(cc1O)CCC1C2CC[C@@]2(C)C1CC[C@@H]2O (stereo partly specified)
inactive: 786-0 12.4 µM | CAKI-1 13.5 µM | CCRF-CEM 12.9 µM | DU-145 14.3 µM | HCC 2998 14.1 µM | KM12 11.8 µM | M14 10.4 µM | NCI-H226 8.81 µM | OVCAR-4 30.3 µM | OVCAR-5 15.7 µM | OVCAR-8 17.9 µM | SF-295 2.26 µM | SK-MEL-28 15.5 µM | SK-MEL-2 14.8 µM | SK-MEL-5 6.24 µM | SNB-19 11.6 µM | SW-620 8.53 µM | U-251 10.4 µM | UACC-257 14.9 µM
